Experimental data from paper PMC6018746, “Activation of the p53-MDM4 regulatory axis defines the anti-tumour response to PRMT5 inhibition through its role in regulating cellular splicing” (Scientific Reports, 2018).
pIC50: −log10 of the molar value. Read-outs that look alike come from different tables or passages of the source.

System: panel of 240 cancer cell lines
Test: 10-day growth/death assay (Eurofins panel)
Type: cell-based
Settings: Homo sapiens, read-out: gIC50
Excerpt: To further develop these molecules and to guide clinical strategy, it was necessary to understand sensitivity in preclinical models by assessing the anti-tumour activity of the PRMT5 inhibitors in various cancers. […] Lymphoma, including MCL and diffuse large B-cell lymphoma (DLBCL), breast, and multiple myeloma cell lines were among the most sensitive tumour types and had gIC50 values in the low nM range (Fig. 1B). […] Since lymphoma and breast cancer cell lines were among the most sensitive in the proliferation screens, subsequent mechanistic studies were performed in these tumour types.

O=C(NC[C@H](O)CN1CCc2ccccc2C1)c1ccnc(NC2CCC2)c1 [GSK3203591]
pIC50 (22Rv1, 22Rv1): 5.61 | pIC50 (639-V): 6.47 | pIC50 (647-V): 7.21 | pIC50 (769-P): 6.69 | pIC50 (786-0, 786-O): 7.69 | pIC50 (5637.000): 6.55 | pIC50 (A7): 7.44 | pIC50 (A101D): 6.72 | pIC50 (A 172, A172): 7.53 | pIC50 (A204, A204): 6.65 | pIC50 (A498, A498): 7.29 | pIC50 (A549, A549): 7.09 | pIC50 (A673, A-673): 6.92 | pIC50 (A-375, A375): 7.10 | pIC50 (A-431, A431): 6.26 | pIC50 (ACHN): 7.41 | pIC50 (AGS): 5.69 | pIC50 (AN3-CA, AN3 CA): 6.60 | pIC50 (ARH-77, ARH-77): 7.35 | pIC50 (ASPC1, AsPC-1): 6.52 | pIC50 (AU565, AU565): 7.84 | pIC50 (BC1, BC-1): 7.16 | pIC50 (BE(2)-C, BE(2)C): 6.10 | pIC50 (BFTC-905, BFTC-905): 6.59 | pIC50 (BPH-1, BPH1): 6.14 | pIC50 (BT-20, BT20): 5.64 | pIC50 (BT-474, BT474): 6.76 | pIC50 (BT-549, BT-549): 7.23 | pIC50 (BV-173, BV-173): 7.97 | pIC50 (BXPC-3, BxPC-3): 6.80 | pIC50 (BeWo): 5.96 | pIC50 (C32, C32): 7.85 | pIC50 (C-4-II, C-4 II): 6.58 | pIC50 (C-4I): 6.86 | pIC50 (C-33-A, C-33A): 6.64 | pIC50 (CAKI-1, Caki-1): 7.16 | pIC50 (CAKI-2, Caki-2): 6.94 | pIC50 (CAL-27, Cal 27): 6.99 | pIC50 (CAL-62, CAL-62): 6.60 | pIC50 (CAMA-1, CAMA-1): 7.10 | pIC50 (CAPAN-1, Capan-1): 6.43 | pIC50 (CCF-STTG1, CCF-STTG1): 6.94 | pIC50 (CCRF-CEM, CCRFCEM): 5.50 | pIC50 (CEM/C1, CEM-C1): 8.10 | pIC50 (CFPAC-1, CFPAC-1): 7.28 | pIC50 (CGTH-W-1, CGTH-W-1): 7.09 | pIC50 (CHL-1, CHL-1): 6.61 | pIC50 (CHP-212, CHP-212): 7.62 | pIC50 (CML-T1, CML-T1): 7.79 | pIC50 (COLO 201, Colo 201): 7.30 | pIC50 (COLO 205, Colo 205): < 5.00 | pIC50 (COLO 320DM): 7.08 | pIC50 (COLO-320-HSR, Colo 320 HSR): 7.10 | pIC50 (COLO-829, COLO 829): 7.26 | pIC50 (COR-L23, COR-L23): 6.83 | pIC50 (COR-L105, COR-L105): 6.50 | pIC50 (CRO-AP2, CRO-AP2): 6.60 | pIC50 (Calu-1, Calu1): 5.52 | pIC50 (Caov-3, CaOV3): 6.53 | pIC50 (Capan-2, Capan-2): 7.16 | pIC50 (ChaGo-K-1, ChaGoK1): 5.92 | pIC50 (D283 Med): 7.63 | pIC50 (DB): 8.60 | pIC50 (DBTRG-05MG): 6.81 | pIC50 (DK-MG): 7.05 | pIC50 (DLD-1, DLD-1): 6.87 | pIC50 (DMS-114, DMS114): 6.00 | pIC50 (DOHH-2, DOHH-2): 6.80 | pIC50 (Daoy): 6.57 | pIC50 (Daudi): 6.85 | pIC50 (Detroit 562, Detroit 562): 6.98 | pIC50 (DoTc2-4510, DoTc2 4510): 7.02 | pIC50 (EB-3, EB-3): 6.52 | pIC50 (EFM-19, EFM-19): 7.16 | pIC50 (EM-2, EM-2): 7.03 | pIC50 (ES-2, ES-2): 6.97 | pIC50 (FaDu): 7.81 | pIC50 (G-401, G-401): 7.42 | pIC50 (G-402, G-402): 7.00 | pIC50 (H4): 6.82 | pIC50 (HCT-8, HCT-8): 6.37 | pIC50 (HCT-15, HCT-15): 7.16 | pIC50 (HCT-116, HCT-116): 6.78 | pIC50 (HEC-1-A): 5.61 | pIC50 (HEL 92.1.7, HEL-92-1-7): 8.04 | pIC50 (HLE): 6.76 | pIC50 (HLF): 7.06 | pIC50 (HMCB): 6.18 | pIC50 (HOS): 6.65 | pIC50 (HPAF-II): 6.81 | pIC50 (HT1197, HT-1197): 7.00 | pIC50 (HT-3, HT-3): < 5.00 | pIC50 (HT-29, HT-29): 7.02 | pIC50 (HT-1080, HT-1080): 7.27 | pIC50 (HT-1376, HT1376): 6.53 | pIC50 (HT): 6.69 | pIC50 (HUH-6-clone5, HUH-6 Clone 5): 6.44 | pIC50 (HeLa): 6.64 | pIC50 (HepG2, HepG2): 6.67 | pIC50 (Hs 294T): 7.91 | pIC50 (Hs 695T): 6.22 | pIC50 (Hs746T, HS 746T): 6.77 | pIC50 (Hs766T): 5.95 | pIC50 (Hs-578T, Hs 578T): 6.02 | pIC50 (HuCCT-1, HuCCT1): 6.65 | pIC50 (HuP-T4, HuP-T4): 7.07 | pIC50 (J82, J82): 7.08 | pIC50 (J-RT3-T3-5, J-RT3-T3-5): 7.36 | pIC50 (JAR): 6.31 | pIC50 (JEG-3, JEG-3): 6.67 | pIC50 (Jurkat): 6.89 | pIC50 (K562, K562): 6.84 | pIC50 (KATO III): 7.78 | pIC50 (KHOS-240S): 6.91 | pIC50 (KLE): < 5.00 | pIC50 (KPL-1, KPL-1): 5.88 | pIC50 (L-428, L-428): 6.48 | pIC50 (LNCaP): 5.53 | pIC50 (LS174T, LS-174T): 6.77 | pIC50 (MC-IXC): 6.21 | pIC50 (MCF7, MCF7): 7.96 | pIC50 (MDA-MB-231, MDA MB 231): 7.25 | pIC50 (MDA-MB-436, MDA-MB-436): 7.30 | pIC50 (MDA-MB-453, MDA MB 453): 7.19 | pIC50 (MDA-MB-468, MDA MB 468): 8.32 | pIC50 (MEG-01, MEG01): < 5.00 | pIC50 (MES-SA): 7.14 | pIC50 (MG-63, MG-63): 7.02 | pIC50 (MHH-PREB-1, MHH-PREB-1): < 5.00 | pIC50 (MIA PaCa-2, Mia PaCa-2): 6.80 | pIC50 (MOLT-3, MOLT-3): 6.66 | pIC50 (MOLT-16, MOLT-16): 7.27 | pIC50 (MT-3, MT-3): 7.33 | pIC50 (MV4-11, MV-4-11): 7.18 | pIC50 (MX1, MX1): 6.53 | pIC50 (Malme-3M, MALME3M): 6.58 | pIC50 (MeWo): 6.60 | pIC50 (NALM-6, NALM-6): 6.96 | pIC50 (NCI-H69, NCI-H69): 6.84 | pIC50 (NCI-H295R): < 5.00 | pIC50 (NCI-H441, NCIH441): 6.25 | pIC50 (NCI-H446, NCIH446): 6.24 | pIC50 (NCI-H460, NCI-H460): 6.65 | pIC50 (NCI-H508, NCI-H508): 6.51 | pIC50 (NCI-H520, NCI-H520): 7.81 | pIC50 (NCI-H596, NCI-H596): 6.73 | pIC50 (NCI-H661, NCI-H661): 6.82 | pIC50 (NCI-H747, NCI-H747): 5.59 | pIC50 (OCUG-1, OCUG-1): 6.42 | pIC50 (OE19, OE19): 7.01 | pIC50 (OE33, OE33): 6.64 | pIC50 (OVCAR-3, OVCAR3): 7.29 | pIC50 (PANC-1, PANC-1): 6.78 | pIC50 (PC-3, PC-3): 6.06 | pIC50 (RD): 6.19 | pIC50 (RKO): 6.11 | pIC50 (RKOAS451, RKO-AS45-1): 6.95 | pIC50 (RKOE6, RKOE6): 6.68 | pIC50 (RL95-2, RL95-2): 6.66 | pIC50 (RPMI-6666, RPMI 6666): 6.13 | pIC50 (RPMI-7951, RPMI-7951): 7.35 | pIC50 (RPMI-8226, RPMI 8226): 7.23 | pIC50 (Raji): 7.61 | pIC50 (Ramos, Ramos (RA 1)): 6.26 | pIC50 (SAOS-2, SaOS2): 7.32 | pIC50 (SCC-4, SCC-4): 6.54 | pIC50 (SCC-9, SCC-9): 6.13 | pIC50 (SCC-25, SCC-25): 6.56 | pIC50 (SCaBER): 6.91 | pIC50 (SH-4, SH-4): 7.12 | pIC50 (SJRH30, SJRH30): 6.33 | pIC50 (SK-BR-3, SK-BR-3): 7.12 | pIC50 (SK-LMS-1, SK-LMS-1): 6.95 | pIC50 (SK-MEL3, SK-MEL-3): 6.74 | pIC50 (SK-MEL-1, SK-MEL-1): 7.41 | pIC50 (SK-MEL-28, SK-MEL-28): 6.62 | pIC50 (SK-MES-1, SKMES1): 6.09 | pIC50 (SK-N-AS): 7.50 | pIC50 (SK-N-DZ): 6.59 | pIC50 (SK-N-FI): 6.51 | pIC50 (SK-NEP-1, SK-NEP-1): 6.58 | pIC50 (SK-OV-3, SKOV3): 7.28 | pIC50 (SK-UT-1, SK-UT-1): 7.38 | pIC50 (SKO-007, SKO-007): 7.07 | pIC50 (SNB-19, SNB-19): 6.65 | pIC50 (SNU1, SNU-1): 5.98 | pIC50 (SNU-16, SNU-16): 7.46 | pIC50 (SNU-423, SNU-423): 7.18 | pIC50 (SR): 6.56 | pIC50 (ST486, ST486): 7.00 | pIC50 (SU.86.86, SU.86.86): 6.03 | pIC50 (SW13, SW-13): 6.68 | pIC50 (SW48, SW48): < 5.00 | pIC50 (SW480, SW480): 6.38 | pIC50 (SW579, SW579): 7.08 | pIC50 (SW684, SW684): 5.93 | pIC50 (SW837, SW837): 6.99 | pIC50 (SW872, SW872): 7.27 | pIC50 (SW900, SW900): 5.49 | pIC50 (SW948, SW948): 6.92 | pIC50 (SW 954, SW954): < 5.00 | pIC50 (SW1088, SW1088): 7.39 | pIC50 (SW1353, SW1353): 6.89 | pIC50 (SW1417, SW1417): 6.11 | pIC50 (SW1463, SW1463): 6.11 | pIC50 (SW1783, SW1783): 6.41 | pIC50 (SW-403, SW403): 6.82 | pIC50 (SW-620, SW620): 5.25 | pIC50 (SiHa): 5.60 | pIC50 (T47D): 7.28 | pIC50 (T98G): 7.56 | pIC50 (T-24, T24): 6.35 | pIC50 (TCC-SUP, TCCSUP): 6.63 | pIC50 (THP-1, Thp1): 7.09 | pIC50 (U138-MG, U-138MG): 7.36 | pIC50 (U266B1): 7.11 | pIC50 (U-87 MG): 7.17 | pIC50 (UMUC3, UM-UC-3): 6.98 | pIC50 (WI-38, Wi38): 7.73 | pIC50 (WiDr): 6.30 | pIC50 (Y79, Y79): 6.95 | pIC50 (YAPC): 6.77
